Drawing on US20260256789A1, “METHODS FOR TREATMENT OF CANCER” (Frontier Medicines Corporation, priority 2022, published 2026), this text covers IC50 for 15 compounds.

SMILES strings stand for the structures. Bounds are passed on as bounds.

The assay deals with T1, KRAS G12C (GMPPNP-loaded) and cRAF Ras-binding domain (Homo sapiens, UniProt P01116, C118S/C51S/C80L/G12C).
T1 construct: truncated version comprising amino acids 1-169
T1 sequence (P01116 1-169 isoform P01116-2 G12C/C51S/C80L/C118S): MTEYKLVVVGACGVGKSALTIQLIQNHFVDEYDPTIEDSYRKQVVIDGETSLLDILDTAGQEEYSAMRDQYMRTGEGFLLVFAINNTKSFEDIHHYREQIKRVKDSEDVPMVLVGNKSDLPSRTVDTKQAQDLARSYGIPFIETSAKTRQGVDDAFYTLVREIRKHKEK
The experiment in a line: Inhibition of KRAS G12C and cRAF binding (AlphaScreen). To be noted: KRAS G12C preloaded with GTP analogue GMPPNP, 2 hours preincubation. In a few lines: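 AlphaScreen used biotin-AviTag KRAS G12C (Cys-light, aa 1-169; 0.5 nM), GMPPNP-loaded, preincubated 2 h with compound (top 50 μM, 1:3, 10 points, 2% DMSO) in pH 7.4 Hepes buffer with 10 μM GMPPNP. GST-cRAF RBD (aa 50-131; 0.75 nM) plus beads were then added for 60-90 min at room temperature, and IC50 came from a 4-parameter fit.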
Background: In Alpha technology, singlet oxygen from a donor bead excites a nearby acceptor bead.
For the compound `C=CC(=O)N1CC[C@@H](N(C)c2nc(OC[C@@]34CCCN3C[C@H](F)C4)nc3c(F)c(-c4cc(F)cc(F)c4C4CC4)ncc23)C1` [Example 249], the IC50 is at least 500 nM.
`C=CC(=O)N1CC[C@@H](N(C)c2nc(OC[C@@]34CCCN3C[C@H](F)C4)nc3c(F)c(-c4cc(C(F)F)ccc4Cl)ncc23)C1` [Example 251] yielded an IC50 of at least 500 nM.
For `C=CC(=O)N1CC[C@@H](N(C)c2nc(OC[C@@]34CCCN3C[C@H](F)C4)nc3c(F)c(-c4cccc(Cl)c4C4CC4)ncc23)C1` [Example 252] the value was 10 to 100 nM.
As to `C=CC(=O)N1CC[C@@H](N(C)c2nc(OC[C@@]34CCCN3C[C@H](F)C4)nc3c(F)c(-c4cc(O)cnc4C4CC4)ncc23)C1` [Example 253], the 50% inhibitory concentration (IC50) is at least 500 nM.
Under `Cc1nccc(/C=C/C(=O)N2CC[C@@H](N(C)c3nc(OC[C@@]45CCCN4C[C@H](F)C5)nc4c(F)c(-c5cc(O)cc(Cl)c5C5CC5)ncc34)C2)n1` [Example 254] stands below 10 nM.
Under `C=CC(=O)N1CC[C@@H](N(C)c2nc(OC[C@@]34CCCN3C[C@H](F)C4)nc3c(F)c(-c4cccc(Cl)c4C(F)(F)F)ncc23)C1` [Example 255] stands 100 to 500 nM; under `CN(c1nc(OC[C@@]23CCCN2C[C@H](F)C3)nc2c(F)c(-c3cccc(Cl)c3C3CC3)ncc12)[C@@H]1CCN(C(=O)/C=C/CN2C3COCC2C3)C1` [Example 256], 10 to 100 nM.
Under `CN(c1nc(OC[C@@]23CCCN2C[C@H](F)C3)nc2c(F)c(-c3cccc(Cl)c3C3CC3)ncc12)[C@@H]1CCN(C(=O)C#CCN2CC3CCC(C2)O3)C1` [Example 257] stands 10 to 100 nM.
As for `Cc1ncc(F)c(/C=C/C(=O)N2CC[C@@H](N(C)c3nc(OC[C@@]45CCCN4C[C@H](F)C5)nc4c(F)c(-c5cccc(Cl)c5C5CC5)ncc34)C2)n1` [Example 258], the IC50 fell in the range of 100 to 500 nM.
With `C=CC(=O)N1CC[C@@H](N(C)c2nc(OC[C@@]34CCCN3C[C@H](F)C4)nc3c(F)c(-c4cc(F)cnc4C4CC4)ncc23)C1` [Example 259], the IC50 was at least 500 nM.
As for `C=CC(=O)N1CC[C@@H](N(C)c2nc(OC[C@@]34CCCN3C[C@H](F)C4)nc3c(F)c(-c4cncnc4C4CC4)ncc23)C1` [Example 260], the IC50 is at least 500 nM.
As to `C=CC(=O)N1CC[C@@H](N(C)c2nc(OC[C@@]34CCCN3C[C@H](F)C4)nc3c(F)c(-c4nc(N)ccc4OC(F)F)ncc23)C1` [Example 261], the IC50 was at least 500 nM.
Compound `CN(c1nc(OC[C@@]23CCCN2C[C@H](F)C3)nc2c(F)c(-c3cccc(Cl)c3C3CC3)ncc12)[C@@H]1CCN(C(=O)/C=C/CN2CC[C@@H](F)C2)C1` [Example 262] displayed an IC50 of 10 to 100 nM.
Under `C=CC(=O)N1CC[C@@H](N(C)c2nc(OC[C@@]34CCCN3C[C@H](F)C4)nc3c(F)c(-c4cc(C(F)F)cc(Cl)c4C4CC4)ncc23)C1` [Example 263] stands at least 500 nM.
Consider `C=CC(=O)N1CC[C@@H](N(C)c2nc(OC[C@@]34CCCN3C[C@H](F)C4)nc3c(F)c(-c4cccc5cn[nH]c45)ncc23)C1` [Example 264], for which the IC50 was at least 500 nM.

As usually defined, the IC50 is the concentration that gives 50% inhibition. The low end stands for greater potency, the high end for weaker potency.
